Experimental data reported in patent publication US20030050307A1, “Novel indole derivatives” (H. Lundbeck A/S, priority 1999, published 2003).
pIC50: −log10 of the molar value. Structures can show the parent of a compound that is named as a salt.

Key:
[1] = target: T1, human cloned dopamine D4.2-receptors (Homo sapiens, UniProt P21917, DEL265-296); assay: Inhibition of the binding of 3H-YM-09151-2 to human dopamine D4 receptors; conditions: [3H]YM-09151-2 0.06 nM; for pIC50: membranes of CHO-cells expressing human D4.2; for inhibition at 0.1 µM: at 100 nM, CHO-cell membranes, human D4.2
T1 construct: expressed in transfected cells; host or cells: CHO cells
T1 sequence (P21917 with tags, fused parts or gaps DEL265-296): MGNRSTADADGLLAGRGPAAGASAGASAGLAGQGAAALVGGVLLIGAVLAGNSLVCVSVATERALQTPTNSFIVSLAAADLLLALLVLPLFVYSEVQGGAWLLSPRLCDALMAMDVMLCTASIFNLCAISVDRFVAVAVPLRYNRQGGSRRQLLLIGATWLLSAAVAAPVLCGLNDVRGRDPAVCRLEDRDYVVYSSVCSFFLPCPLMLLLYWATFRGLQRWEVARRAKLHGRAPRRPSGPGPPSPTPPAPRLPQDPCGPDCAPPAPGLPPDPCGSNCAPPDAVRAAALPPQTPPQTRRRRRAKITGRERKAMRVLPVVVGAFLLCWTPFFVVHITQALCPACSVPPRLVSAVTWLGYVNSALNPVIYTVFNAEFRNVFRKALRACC
Procedure: Inhibition of the Binding of ^3H-YM-09151-2 to Human Dopamine D4 Receptors
By this method, the inhibition by drugs of the binding of [^3H]YM-09151-2 (0.06 nM) to membranes of human cloned dopamine D4.2-receptors expressed in CHO-cells is determined in vitro. Method modified from NEN Life Science Products, Inc., technical data certificate PC2533-10/96.

[2] = target: T2, cloned human 5-HT1A-receptors (Homo sapiens, UniProt P08908); assay: Inhibition of 3H-5-CT binding to human 5-HT1A receptors; conditions: transfected HeLa cells (HA7), 15 minutes at 37° C., pH 7.7; for inhibition at 0.05 µM: at 50 nM
T2 construct: expressed in transfected cells; host or cells: HeLa cells (HA7)
T2 sequence (P08908 1-422): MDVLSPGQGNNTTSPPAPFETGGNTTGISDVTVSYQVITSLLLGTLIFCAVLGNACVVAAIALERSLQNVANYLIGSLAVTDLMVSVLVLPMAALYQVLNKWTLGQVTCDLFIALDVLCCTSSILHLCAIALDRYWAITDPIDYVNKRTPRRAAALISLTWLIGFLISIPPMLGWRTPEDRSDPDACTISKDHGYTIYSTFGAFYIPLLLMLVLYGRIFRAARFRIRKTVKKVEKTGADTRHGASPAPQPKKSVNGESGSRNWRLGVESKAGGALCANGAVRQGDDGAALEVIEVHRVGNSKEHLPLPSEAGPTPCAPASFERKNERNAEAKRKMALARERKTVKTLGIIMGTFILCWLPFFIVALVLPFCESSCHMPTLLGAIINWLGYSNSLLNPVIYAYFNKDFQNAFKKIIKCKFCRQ
Procedure: The affinity of the compounds of the invention to 5-HT1A receptors was determined by measuring the inhibition of binding of a radioactive ligand at 5-HT1A-receptors as described in the following test:
Inhibition of ^3H-5-CT Binding to Human 5-HT1A Receptors.
By this method, the inhibition by drugs of the binding of the 5-HT1A-agonist ^3H-5-carboxamido tryptamine (^3H-5-CT) to cloned human 5-HT1A-receptors stably expressed in transfected HeLa cells (HA7) (Fargin, A. et al. J. Biol. Chem. 1989, 264, 14848) is determined in vitro. The assay was performed as a modification of the method described by Harrington, M. A. et al. J. Pharmacol. Exp. Ther. 1994, 268, 1098. Human 5-HT1A-receptors (40 μg of cell homogenate) were incubated for 15 minutes at 37° C. in 50 mM Tris buffer at pH 7.7 in the presence of ^3H-5-CT. Non-specific binding was determined by including 10 μM of metergoline. The reaction was terminated by rapid filtration through Unifilter GF/B filters on a Tomtec Cell Harvester. Filters were counted in a Packard Top Counter.

Molecule Clc1ccc(SCCN2CCN(c3cccc4[nH]ccc34)CC2)cc1Cl (as salt: oxalate) [Compound 3c, 4-{4-[2-(3,4-Dichloro-phenylsulfanyl)-ethyl]-piperazin-1-yl}-1H-indole] has a melting point of 140 to 141 °C.
Fc1ccc(OCCCCN2CCN(c3cccc4[nH]ccc34)CC2)c(Br)c1 (as salt: oxalate) [Compound 2d, 4-{4-[4-(2-Bromo-4-fluoro-phenoxy)-butyl]-piperazin-1-yl}-1H-indole] showed a melting point of 218 to 220 °C.
For Clc1ccccc1OCCCN1CCN(c2cccc3[nH]ccc23)CC1 [Compound 1, 4-{4-[3-(2-Chloro-phenoxy)-propyl]-piperazin-1-yl}-1H-indole], the pIC50 [1] was 7.04, the pIC50 [2] was 7.92 and the melting point was 189 to 199 °C.
In the case of Brc1ccccc1OCCCN1CCN(c2cccc3[nH]ccc23)CC1 (as salt: oxalate) [Compound 2c, 4-{4-[3-(2-Bromo-phenoxy)-propyl]-piperazin-1-yl}-1H-indole], the melting point was 206 to 208 °C.
In the case of Brc1ccccc1SCCCN1CCN(c2cccc3[nH]ccc23)CC1 (as salt: oxalate) [Compound 2b, 4-(4-[3-(2-Bromo-phenylsulfanyl)-propyl]-piperazin-1-yl}-1H-indole], the melting point was 163 to 166 °C.
With Cc1cccc(Cl)c1SCCCCN1CCN(c2cccc3[nH]ccc23)CC1 (as salt: oxalate) [Compound 2e, 4-{4-[4-(2-Chloro-6-methyl-phenylsulfanyl)-butyl]-piperazin-1-yl}-1H-indole] the melting point was 199 to 210 °C.
Molecule Fc1cc(Br)cc(F)c1OCCCN1CCN(c2cccc3[nH]ccc23)CC1 [Compound 4m, 4-{4-[3-(4-Bromo-2,6-difluoro-phenoxy)-propyl]-piperazin-1-yl}-1H-indole] has a pIC50 [1] of 7.41 and a pIC50 [2] of 9.00.
In the case of Clc1ccc(Cl)c(OCCCCN2CCN(c3cccc4[nH]ccc34)CC2)c1 [Compound 5au, 4-{4-[4-(2,5-Dichloro-phenoxy)-butyl]-piperazin-1-yl}-1H-indole], the inhibition at 0.1 µM [1] was 97% and the inhibition at 0.05 µM [2] was 99%.
For Clc1cccc(Cl)c1SCCN1CCN(c2cccc3[nH]ccc23)CC1 (as salt: oxalate) [Compound 3b, 4-(4-[2-(2,6-Dichloro-phenylsulfanyl)-ethyl]-piperazin-1-yl)-1H-indole], the melting point was 130 to 133 °C (dec.).
With Clc1cccc(SCCN2CCN(c3cccc4[nH]ccc34)CC2)c1Cl [Compound 5ad, 4-{4-[2-(2,3-Dichloro-phenylsulfanyl)-ethyl]-piperazin-1-yl}-1H-indole] the pIC50 [1] was 8.39 and the inhibition at 0.05 µM [2] was 76%.
Work on Clc1cccc(Cl)c1SCCCN1CCN(c2cccc3[nH]ccc23)CC1 [Compound 4q, 4-{4-[3-(2,6-Dichloro-phenylsulfanyl)-propyl]-piperazin-1-yl}-1H-indole] yielded a pIC50 [1] of 8.14 and a pIC50 [2] of 8.46.
With Clc1cccc(SCCN2CCN(c3cccc4[nH]ccc34)CC2)c1 [Compound 5am, 4-{4-[2-(3-Chloro-phenylsulfanyl)-ethyl]-piperazin-1-yl}-1H-indole] the inhibition at 0.1 µM [1] was 83% and the inhibition at 0.05 µM [2] was 93%.
Work on Clc1cccc(Cl)c1SCCCCN1CCN(c2cccc3[nH]ccc23)CC1 [Compound 4d, 4-{4-[4-(2,6-Dichloro-phenylsulfanyl)-butyl]-piperazin-1-yl}-1H-indole] yielded a pIC50 [1] of 8.74 and a pIC50 [2] of 8.15.
Work on Fc1ccc(OCCCCN2CCN(c3cccc4[nH]ccc34)CC2)c(Br)c1 [Compound 2d, 4-{4-[4-(2-Bromo-4-fluoro-phenoxy)-butyl]-piperazin-1-yl}-1H-indole] yielded a pIC50 [1] of 8.80 and a pIC50 [2] of 8.19.
With Clc1ccccc1SCCN1CCN(c2cccc3[nH]ccc23)CC1 [Compound 5an, 4-{4-[2-(2-Chloro-phenylsulfanyl)-ethyl]-piperazin-1-yl}-1H-indole] the inhibition at 0.1 µM [1] was 83% and the inhibition at 0.05 µM [2] was 91%.
COc1ccccc1OCCCCN1CCN(c2cccc3[nH]ccc23)CC1 [Compound 5ba, 4-{4-[4-(2-Methoxy-phenoxy)-butyl]-piperazin-1-yl}-1H-indole] showed an inhibition at 0.1 µM [1] of 80% and an inhibition at 0.05 µM [2] of 83%.
Molecule Clc1ccc(SCCCN2CCN(c3cccc4[nH]ccc34)CC2)cc1Cl [Compound 5ag, 4-{4-[3-(3,4-Dichloro-phenylsulfanyl)-propyl]-piperazin-1-yl}-1H-indole] has an inhibition at 0.1 µM [1] of 95% and an inhibition at 0.05 µM [2] of 93%.
Brc1cccc(SCCCN2CCN(c3cccc4[nH]ccc34)CC2)c1 [Compound 5ay, 4-{4-[3-(3-Bromo-phenylsulfanyl)-propyl]-piperazin-1-yl}-1H-indole] showed an inhibition at 0.1 µM [1] of 105% and an inhibition at 0.05 µM [2] of 96%.
In the case of Cc1cccc(Cl)c1SCCCCN1CCN(c2cccc3[nH]ccc23)CC1 [Compound 4f], the pIC50 [1] was 8.52 and the pIC50 [2] was 8.24.
For Cc1ccc(Cl)c(OCCCCN2CCN(c3cccc4[nH]ccc34)CC2)c1 [Compound 5ak, 4-{4-[4-(2-Chloro-5-methyl-phenoxy)-butyl]-piperazin-1-yl}-1H-indole], the inhibition at 0.1 µM [1] was 93% and the inhibition at 0.05 µM [2] was 91%.
With CC(C)c1ccccc1SCCCN1CCN(c2cccc3[nH]ccc23)CC1 [Compound 5az, 4-{4-[3-(2-Isopropyl-phenylsulfanyl)-propyl]-piperazin-1-yl}-1H-indole] the inhibition at 0.1 µM [1] was 94% and the inhibition at 0.05 µM [2] was 98%.
Work on Cc1ccc(SCCN2CCN(c3cccc4[nH]ccc34)CC2)c(C)c1 [Compound 5ac, 4-{4-[2-(2,4-Dimethyl-phenylsulfanyl)-ethyl]-piperazin-1-yl}-1H-indole] yielded an inhibition at 0.1 µM [1] of 83% and an inhibition at 0.05 µM [2] of 85%.
Work on Fc1cc(F)c(OCCCN2CCN(c3cccc4[nH]ccc34)CC2)c(Br)c1 [Compound 4h, 4-{4-[3-(2-Bromo-4,6-difluoro-phenoxy)-propyl]-piperazin-1-yl}-1H-indole] yielded a pIC50 [1] of 8.27 and a pIC50 [2] of 8.85.
Work on Cc1cccc(C)c1SCCCCN1CCN(c2cccc3[nH]ccc23)CC1 [Compound 5ab, 4-{4-[4-(2,6-Dimethyl-phenylsulfanyl)-butyl]-piperazin-1-yl}-1H-indole] yielded an inhibition at 0.1 µM [1] of 95% and an inhibition at 0.05 µM [2] of 83%.
Molecule COc1ccc(SCCCCN2CCN(c3cccc4[nH]ccc34)CC2)cc1OC [Compound 5av, 4-{4-[4-(3,4-Dimethoxy-phenylsulfanyl)-butyl]-piperazin-1-yl}-1H-indole] has an inhibition at 0.1 µM [1] of 107% and an inhibition at 0.05 µM [2] of 69%.
With Fc1ccc(OCCCN2CCN(c3cccc4[nH]ccc34)CC2)c(Cl)c1 [Compound 4e, 4-{4-[3-(2-Chloro-4-fluoro-phenoxy)-propyl]-piperazin-1-yl}-1H-indole] the pIC50 [1] was 8.70 and the pIC50 [2] was 8.31.
In the case of Fc1ccc(SCCCN2CCN(c3cccc4[nH]ccc34)CC2)c(Cl)c1 [Compound 4a], the pIC50 [1] was 9.28 and the pIC50 [2] was 8.03.
